This note sets out measurements from paper PMC6939882 (Molecular microbiology, 2017).

Test [1] concerns the target T1, Amy13K ΔCBMa-e (Agathobacter rectalis, UniProt A0ABF7PGZ5).
T1 sequence (A0ABF7PGZ5 621-1364 limits assumed): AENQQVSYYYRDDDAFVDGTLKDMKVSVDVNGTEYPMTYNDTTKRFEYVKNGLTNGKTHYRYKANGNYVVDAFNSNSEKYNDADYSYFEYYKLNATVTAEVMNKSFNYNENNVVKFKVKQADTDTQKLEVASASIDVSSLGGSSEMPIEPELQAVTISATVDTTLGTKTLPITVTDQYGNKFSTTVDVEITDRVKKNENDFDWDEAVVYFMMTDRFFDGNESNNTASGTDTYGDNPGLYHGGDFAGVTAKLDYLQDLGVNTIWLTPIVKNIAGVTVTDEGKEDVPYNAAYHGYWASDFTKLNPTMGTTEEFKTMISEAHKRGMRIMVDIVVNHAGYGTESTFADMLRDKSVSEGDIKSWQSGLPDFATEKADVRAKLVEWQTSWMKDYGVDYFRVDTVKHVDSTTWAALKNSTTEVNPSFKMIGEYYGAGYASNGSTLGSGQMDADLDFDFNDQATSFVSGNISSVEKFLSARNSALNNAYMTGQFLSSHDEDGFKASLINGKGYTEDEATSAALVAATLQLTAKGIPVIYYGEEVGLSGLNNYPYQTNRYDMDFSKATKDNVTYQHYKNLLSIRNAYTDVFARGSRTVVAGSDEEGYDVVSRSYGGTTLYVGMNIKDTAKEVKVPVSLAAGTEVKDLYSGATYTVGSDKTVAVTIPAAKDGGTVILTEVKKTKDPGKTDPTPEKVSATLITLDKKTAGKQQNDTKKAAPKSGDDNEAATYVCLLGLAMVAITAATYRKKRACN
Kind of test: isothermal titration calorimetry of hydrolysis. Type of test: biochemical. Particulars: 37 °C; only kcat/KM printed.

The target of test [2] is T2, Amy13K WT (Agathobacter rectalis, UniProt A0ABF7PGZ5).
T2 sequence (A0ABF7PGZ5 44-1364): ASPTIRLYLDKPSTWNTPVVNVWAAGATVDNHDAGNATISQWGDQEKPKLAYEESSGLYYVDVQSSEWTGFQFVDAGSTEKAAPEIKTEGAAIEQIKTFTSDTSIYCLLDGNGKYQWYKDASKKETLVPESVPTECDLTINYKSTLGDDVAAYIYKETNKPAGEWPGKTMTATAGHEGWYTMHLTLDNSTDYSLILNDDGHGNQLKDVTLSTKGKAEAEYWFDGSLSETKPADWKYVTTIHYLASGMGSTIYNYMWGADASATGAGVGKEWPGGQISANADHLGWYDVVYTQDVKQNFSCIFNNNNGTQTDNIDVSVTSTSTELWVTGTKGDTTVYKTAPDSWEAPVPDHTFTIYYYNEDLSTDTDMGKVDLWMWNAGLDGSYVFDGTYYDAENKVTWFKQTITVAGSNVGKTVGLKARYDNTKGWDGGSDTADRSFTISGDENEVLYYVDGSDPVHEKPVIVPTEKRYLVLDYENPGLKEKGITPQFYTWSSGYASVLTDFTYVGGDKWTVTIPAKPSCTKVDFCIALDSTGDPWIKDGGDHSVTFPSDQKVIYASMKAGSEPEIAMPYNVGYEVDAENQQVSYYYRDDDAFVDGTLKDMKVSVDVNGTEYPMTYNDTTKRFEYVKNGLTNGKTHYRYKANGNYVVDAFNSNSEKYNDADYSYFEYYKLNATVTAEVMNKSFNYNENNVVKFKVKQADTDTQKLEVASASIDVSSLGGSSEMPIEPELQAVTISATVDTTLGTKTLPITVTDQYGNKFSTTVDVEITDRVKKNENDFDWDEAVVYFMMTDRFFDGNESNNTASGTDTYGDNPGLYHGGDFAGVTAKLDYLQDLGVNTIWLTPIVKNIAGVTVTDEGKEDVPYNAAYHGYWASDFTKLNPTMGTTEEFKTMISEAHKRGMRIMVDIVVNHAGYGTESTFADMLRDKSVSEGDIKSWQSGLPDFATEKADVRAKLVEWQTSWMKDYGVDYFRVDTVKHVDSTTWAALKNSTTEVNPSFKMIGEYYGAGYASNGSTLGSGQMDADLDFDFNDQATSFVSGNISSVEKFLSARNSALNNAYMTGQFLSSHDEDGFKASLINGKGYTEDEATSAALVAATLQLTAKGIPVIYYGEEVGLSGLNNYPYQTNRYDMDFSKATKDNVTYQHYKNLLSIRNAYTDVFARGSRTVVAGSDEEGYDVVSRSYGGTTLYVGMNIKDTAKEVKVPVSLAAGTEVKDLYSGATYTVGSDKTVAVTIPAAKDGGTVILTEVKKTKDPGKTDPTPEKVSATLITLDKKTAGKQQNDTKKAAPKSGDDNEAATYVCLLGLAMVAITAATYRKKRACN
As to the kind of experiment: isothermal titration calorimetry of hydrolysis. The class given is biochemical. As to conditions: 37 °C; only kcat/KM printed. (In general: Isothermal titration calorimetry measures the heat released or taken up as one component is titrated into another.)

For `OC[C@H]1O[C@H](O[C@H]2[C@H](O)[C@@H](O)[C@@H](O[C@H]3[C@H](O)[C@@H](O)[C@@H](O[C@H]4[C@H](O)[C@@H](O)[C@@H](O[C@H]5[C@H](O)[C@@H](O)[C@@H](O[C@H]6[C@H](O)[C@@H](O)[C@@H](O[C@H]7[C@H](O)[C@@H](O)C(O)O[C@@H]7CO)O[C@@H]6CO)O[C@@H]5CO)O[C@@H]4CO)O[C@@H]3CO)O[C@@H]2CO)[C@H](O)[C@@H](O)[C@@H]1O` (some centres unmarked) [maltoheptaose], the “isothermal titration calorimetry of hydrolysis” value is “The catalytic efficiency of the WT and ΔCBMa-e on maltoheptaose are” in test [1]; “The catalytic efficiency of the WT and ΔCBMa-e on maltoheptaose are” in test [2].
